Key:
Wistar Kyoto rats [1] = assay: Test 1: NMDA-antagonist induced locomotion; assay type: in vivo; details: rat
Description: Test 1: NMDA-Antagonist Induced Locomotion:
Male Wistar Kyoto rats (Iffa Crédo, Lyon, France) weighing between 250 and 310 g are used. In principle 4 treatment groups are formed: 1) the compound (doses 1, 3 or 10 mg/kg) followed by the competitive NMDA receptor antagonist (S)-2-amino-3-(2′-chloro-5-phosphonomethyl-biphenyl-3-yl)-propionic acid, hereinafter SDZ 220-581 (10 mg/kg), 2) solvent-pretreatment followed by SDZ 220-581 (10 mg/kg), 3) solvent followed by solvent, 4) the compound (1, 3, 10 mg/kg) followed by solvent. Rats are randomly allocated to these pretreatment groups (n=10/dose group). Drugs are administered subcutaneous (s.c.), 15 min prior to SDZ 220-581. Immediately after the animals received SDZ 220-581, they are placed into the activity monitor for a period of 60 min. Locomotor activity is analysed over the initial 30 minutes.
Locomotion is recorded with a videotracking system (VideoMot2, TSE Technical and Scientific Equipment GmbH, Bad Hombourg, Germany), using a closed circuit digital videocamera (WV-BP.330/GE, Panasonic, Osaka, Japan). The video-signal from the camera is digitized and used for data analysis. Animals are on a normal 12/12 h day-night cycle, with light on at 06:00H. Experiments are performed in a dimly lit room between 07:00 H and 15:00H. […] The camera is placed such, that four animals (one per arena) can be recorded simultaneously.

[2] = tested on: patients with diabetic neuropathy; assay: clinical study of chronic pain in patients with diabetic neuropathy; assay type: in vivo, human; details: 2400 mg/day, Maintenance and Follow-up Periods, statistically significant
Description: The activity of the compounds of formula I in the treatment of neuropathic pain can be confirmed in clinical trials, for example in the following study aimed at evaluating the efficacy of a compound in treating chronic pain in patients with diabetic neuropathy:
Patients are randomized to receive 2400 mg/day of the compound or placebo in a 1:1 ratio.
The study consists of a Pre-randomization Phase (1 week) and a Double-blind Phase (5 weeks). The double-blind Phase consists of three periods: a one week Titration Period, a three-week Maintenance Period and a one-week Follow-up Period.
During the 1-week Pre-randomization Phase, the eligibility of the patients is evaluated. Patents meeting all inclusion/exclusion criteria are randomized to either the compound or placebo in the Double-blind Phase. […]
The SF-MPQ total pain score at the end of the Maintenance Period is analyzed using an analysis of covariance model adjusting for the effect of treatment on post-treatment scores by using the baseline SF-MPQ total pain score as a covariate. Average weekly pain severity is analyzed using an analysis of covariance model with repeated measures using the treatment week and the mean pain severity rating during the Pre-randomization Phase as covariates. Usage of rescue medication during the Double-blind Phase is analyzed using the Cochran-Mantel-Haenszel test controlling for center. […]

Wistar rats = assay: model of neuropathic pain in the rat (partial sciatic nerve ligation, mechanical hyperalgesia); assay type: in vivo; details: 10 mg/kg p.o., after 3 hours
Excerpt: The activity of the compounds in the treatment of neuropathic pain is evidenced, for example, in the following model of neuropathic pain in the rat:
Wistar rats are anaesthetised with enflurane and a small incision is made mid-way up one thigh to expose the sciatic nerve. The nerve is cleared of connective tissue and a 7-0 silk suture is inserted into the nerve using a ⅜ curved reverse-cutting min-needle, and tightly ligated so that the dorsal ⅓ to ½ of the nerve thickness is held within the ligature. The muscle and skin are closed with sutures and clips and the wound dusted with antibiotic powder. […] Mechanical hyperalgesia is assessed by measuring paw withdrawal thresholds on both the ipsilateral (ligated) and contralateral (unligated) hindpaw to an increasing pressure stimulus applied to the paw using an analgesymeter (Ugo-Basile) with a wedge-shaped probe (area 1.75 mm^2) and a cut-off threshold of 250 g. […] Reversal of established hyperalgesia by administered compounds is measured 12-14 days following surgery, using 6 animals per treatment group. Paw withdrawal thresholds are measured prior to and then up to 6 hours following drug or vehicle administration. Statistical analysis is carried out on withdrawal threshold readings using ANOVA followed by Tukey's HSD test comparing drug treated and time-matched vehicle treated animals.

auditory neurons = assay: extracellular electrophysiological recording of auditory neuron firing rate
neurons = details: superfusion, in vitro
Excerpt: The activity in tinnitus of the compounds is indicated in standard tests, e.g. in the salicylate-induced tinnitus model.

Wistar Kyoto rats [3] = assay: Test 2: NMDA-channel blocker induced head swaying and circling; assay type: in vivo; details: rat, 10 mg/kg s.c., 0-30 min
Description: Test 2: NMDA-Channel Blocker Induced Head Swaying and Circling:
Adult male Wistar Kyoto rats (340-380 g; Iffa Credo, Lyon, France) are used. The animals are randomized to the following treatment groups (n=10 per group): the compound (dosed 0, 3 or 10 mg/kg) followed by phencyclidine (PCP; an NMDA channel blocker, dosed 0 or 10 mg/kg). Compound (at t=−15 min) and PCP (at t=0 min) are administered s.c. in a volume of 1 ml/kg. Video-recordings of the animals behaviour over the period 0-30 min following PCP are scored by an observer who is unaware about the animals pretreatment. Head-swaying (rocking the head repeatedly by at least 2 cm left and right) and circling (turning around by using the forepaws, whereas the hindpaws remain more or less on the original position) are scored as present (1) or absent (0), every five minutes for the duruation of 1 minute. The scores for individual animals is summed and group scores used for statistical analysis (t-test with Bonferroni correction).

Structure (SMILES): O=c1[nH]c2cc([N+](=O)[O-])cc(CNCP(=O)(O)O)c2[nH]c1=O [{[(7-nitro-2,3-dioxo-1,2,3,4-tetrahydro-quinoxalin-5-ylmethyl)-amino]-methyl}-phosphonic acid]
- effect of the NMDA-antagonist SDZ 220-581 on locomotion after pretreatment (Wistar Kyoto rats [1]; compound 10 mg/kg s.c., SDZ 220-581 10 mg/kg s.c.): almost normalized
- pain severity ratings relative to placebo [2]: decrease pain severity ratings relative to placebo
- maximal reversal of neuropathic mechanical hyperalgesia (Wistar rats): 35%

Structure (SMILES): O=C(O)c1ccccc1O [salicylate]
- firing rate of auditory neurons (auditory neurons): increase in the firing rate
- excitability of the recorded neurons (neurons): increases the excitability

Structure (SMILES): N[C@@H](Cc1cc(CP(=O)(O)O)cc(-c2ccccc2Cl)c1)C(=O)O [SDZ 220-581, (S)-2-amino-3-(2′-chloro-5-phosphonomethyl-biphenyl-3-yl)-propionic acid]
- distance walked during 30 min (Wistar Kyoto rats [1]; 10 mg/kg s.c., control animals approximately 8-10 m): approximately 30 m

Structure (SMILES): c1ccc(C2(N3CCCCC3)CCCCC2)cc1 [PCP, phencyclidine]
- head-swaying and circling induced (Wistar Kyoto rats [3]): weak head-swaying and circling

Structure (SMILES): C=C[C@H]1C[N@@]2CC[C@H]1C[C@H]2[C@H](O)c1ccnc2ccc(OC)cc12 [quinine]
- firing rate of auditory neurons (auditory neurons): increase in the firing rate
